The source of these data is patent publication EP3046573B1, “AMYLIN ANALOGUES” (Zealand Pharma A/S, priority 2013, dated 2015).

Numbered stars: 1 amine (or outer) side, 2 acyl side, 3 side chain; on linkers, the order of the positions; unused ones are H or OH. Bridge positions count the residues as written; N and C are the ends. Square brackets hold non-standard residues; d marks the D form. Peptide text beside a SMILES is read from it. * marks the point of attachment. C20 diacid = O=C(O)CCCCCCCCCCCCCCCCCCC(=O)*; γGlu = O=C(O)[C@H](CCC(=O)[*:2])N[*:1]; NMeI = CC[C@H](C)[C@H](NC)C(=O)O; Sar = CNCC(=O)O

In data set [1] the test system is Sprague Dawley (SD) rats. The data set is described as follows: Acute food intake and body weight in normal Sprague Dawley rats. It counts as in vivo. The conditions noted are these: vehicle-corrected, dose 30 nmol/kg sc, once; for Body weight loss (%) after 96 hours: mean ± SEM, n = 8. The essentials: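 Normal male-unspecified SD rats, n = 8 per group, given a single s.c. peptide dose of 30 nmol/kg just before dark phase, with vehicle and positive control groups. Food intake recorded at 0, 4, 7, 10, 24, 48, 72 and 96 h; body weight daily; means ± SEM.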

The nature of data set [2]: Assessment of physical stability: fibril formation detected with Thioflavin T (ThT), lag-time. The conditions noted are these: 1 mg/ml peptide, 40 µM ThT, FND = Fibrillation not detected; for Fibrillation lag time (hours) pH 4.0 (Ac): 50 mM acetate buffer pH 4.0, 96 hours at 40°C; for Fibrillation lag time (hours) pH 7.0 (His): 50 mM histidine buffer pH 7.0, 96 hours at 40°C; for Fibrillation lag time (hours) pH 7.0 (Ph): 50 mM phosphate buffer pH 7.0, 96 hours at 40°C. It counts as physicochemical. The essentials:
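Test peptide at 1 mg/ml with 40 µM ThT in 50 mM phosphate (pH 7.0), 50 mM histidine (pH 7.0) or 50 mM acetate (pH 4.0), in triplicate, 40° C. for 96 h. Fluorescence read every 10 min after 300 s agitation. Lag-time (h) taken as intersection of linear fits to initial stable and growth phases.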

Data set [3] can be described thus: Solubility assessment (turbidity absorbance at 325 nm). It counts as physicochemical. The conditions noted are these: stock 2 mg/ml diluted 1:1, ambient temperature (typically 25°C), n=1; for Solubility, Acetate buffer pH 4: 100 mM acetate buffer pH 4.0; for Solubility, Acetate buffer pH 5: 100 mM acetate buffer pH 5.0; for Solubility, Histidine buffer pH 6: 100 mM histidine buffer pH 6.0; for Solubility, Histidine buffer pH 7: 100 mM histidine buffer pH 7.0; for Solubility, Phosphate buffer pH 6: 100 mM phosphate buffer pH 6.0; for Solubility, Phosphate buffer pH 7: 100 mM phosphate buffer pH 7.0; for Solubility, Phosphate buffer pH 7.5: 100 mM phosphate buffer pH7.5. The essentials:
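Read-out: turbidity as absorbance at 325 nm (280 nm also read), single samples, ambient temperature of typically 25°C. Samples were a 1:1 mix of 2 mg/ml stock (water, pH 2.5) with 100 mM acetate, histidine or phosphate buffers spanning pH 4.0–7.5. Cut-off: A325 ≤ 0.02 indicates ≥ 1 mg/ml.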

`CC[C@H](C)[C@@H](C(=O)N[C@@H](CC(C)C)C(=O)N[C@@H](CO)C(=O)N[C@@H](CO)C(=O)N[C@H](C(=O)N[C@@H](CCC(=O)O)C(=O)N[C@H](C(=O)NCC(=O)N[C@@H](CO)C(=O)N[C@@H](CCC(=O)O)C(=O)N[C@H](C(=O)N1CCC[C@H]1C(N)=O)[C@@H](C)O)C(C)C)[C@@H](C)O)N(C)C(=O)[C@H](C)NC(=O)CN(C)C(=O)[C@H](Cc1ccccc1)NC(=O)[C@H](CO)NC(=O)[C@H](CO)NC(=O)[C@H](CO)NC(=O)[C@H](CO)NC(=O)[C@H](CCCNC(=N)N)NC(=O)[C@H](Cc1c[nH]cn1)NC(=O)[C@H](CC(C)C)NC(=O)[C@H](Cc1ccccc1)NC(=O)[C@H](CCC(=O)O)NC(=O)[C@H](C)NC(=O)[C@H](CC(C)C)NC(=O)[C@H](CCCNC(=N)N)NC(=O)[C@H](CC(=O)O)NC(=O)[C@@H](NC(=O)[C@H](C)NC(=O)[C@@H]1CSSC[C@H](NC(=O)[C@H](CCCNC(=N)N)NC(=O)CC[C@H](NC(=O)CCCCCCCCCCCCCCCCCCC(=O)O)C(=O)O)C(=O)N[C@@H](CC(N)=O)C(=O)N[C@@H]([C@@H](C)O)C(=O)N[C@@H](C)C(=O)N[C@@H]([C@@H](C)O)C(=O)N1)[C@@H](C)O` [Compound 120, [19CD]-isoGlu-RC()NTATC()ATDRLAEFLHRSSSSF-Gly(Me)-A-Ile(Me)-LSSTEVGSETP-NH2] ({C20 diacid-γGlu}-RCNTATCATDRLAEFLHRSSSSF[Sar]A[NMeI]LSSTEVGSETP-NH2; disulfide 2-7): the “Body weight loss (%) after 96 hours” value in data set [1] is on record as 12 ± 1.8%. Besides, in data set [2], the “Fibrillation lag time (hours) pH 4.0 (Ac)” value (“Fibrillation lag time … (Ac)” below) was “FND”, the “Fibrillation lag time (hours) pH 7.0 (His)” value (from here on “Fibrillation lag time … (His)”) is reported as “FND” and the “Fibrillation lag time (hours) pH 7.0 (Ph)” value (“Fibrillation lag time … (Ph)” below) was “FND”. In addition, in data set [3], the “Solubility, Acetate buffer pH 4” value is “SS (SS indicates solubility ≥ 1mg/ml)”; the “Solubility, Acetate buffer pH 5” value is recorded as “SS (SS indicates solubility ≥ 1mg/ml)”; the “Solubility, Histidine buffer pH 6” value is given as “SS (SS indicates solubility ≥ 1mg/ml)”; the “Solubility, Histidine buffer pH 7” value is on record as “SS (SS indicates solubility ≥ 1mg/ml)”. Also, in data set [3], the “Solubility, Phosphate buffer pH 6” value is on record as “SS (SS indicates solubility ≥ 1mg/ml)”; the “Solubility, Phosphate buffer pH 7” value was “SS (SS indicates solubility ≥ 1mg/ml)”; the “Solubility, Phosphate buffer pH 7.5” value is listed as “SS (SS indicates solubility ≥ 1mg/ml)”.
Turning to `CC[C@H](C)[C@@H](C(=O)N[C@@H](CC(C)C)C(=O)N[C@@H](CO)C(=O)N[C@@H](CO)C(=O)N[C@H](C(=O)N[C@@H](CCC(=O)O)C(=O)N[C@H](C(=O)NCC(=O)N[C@@H](CO)C(=O)N[C@@H](CCC(=O)O)C(=O)N[C@H](C(=O)N1CCC[C@H]1C(N)=O)[C@@H](C)O)C(C)C)[C@@H](C)O)N(C)C(=O)[C@H](C)NC(=O)CN(C)C(=O)[C@H](Cc1ccccc1)NC(=O)[C@H](CO)NC(=O)[C@H](CO)NC(=O)[C@H](CO)NC(=O)[C@H](CO)NC(=O)[C@H](CCCNC(=N)N)NC(=O)[C@H](Cc1c[nH]cn1)NC(=O)[C@H](CC(C)C)NC(=O)[C@H](Cc1ccccc1)NC(=O)[C@H](CCC(=O)O)NC(=O)[C@H](C)NC(=O)[C@H](CC(C)C)NC(=O)[C@H](CCCNC(=N)N)NC(=O)[C@H](CCC(=O)O)NC(=O)[C@@H](NC(=O)[C@H](C)NC(=O)[C@@H]1CSSC[C@H](NC(=O)[C@H](CCCNC(=N)N)NC(=O)CC[C@H](NC(=O)CCCCCCCCCCCCCCCCCCC(=O)O)C(=O)O)C(=O)N[C@@H](CCC(=O)O)C(=O)N[C@@H]([C@@H](C)O)C(=O)N[C@@H](C)C(=O)N[C@@H]([C@@H](C)O)C(=O)N1)[C@@H](C)O` [Compound 134, [19CD]-isoGlu-RC()ETATC()ATERLAEFLHRSSSSF-Gly(Me)-A-Ile(Me)-LSSTEVGSETP-NH2] ({C20 diacid-γGlu}-RCETATCATERLAEFLHRSSSSF[Sar]A[NMeI]LSSTEVGSETP-NH2; disulfide 2-7), in data set [1], the “Food intake inhibition (%) after 48 hours” value is 27% and the “Body weight loss (%) after 96 hours” value turned out to be 4 ± 3.1 %. In addition, in data set [2], the “Fibrillation lag time … (Ac)” value was “FND”, the “Fibrillation lag time … (His)” value is “FND” and the “Fibrillation lag time … (Ph)” value is “FND”. Further, in data set [3], the “Solubility, Acetate buffer pH 4” value was “SS (SS indicates solubility ≥ 1mg/ml)”; the “Solubility, Acetate buffer pH 5” value is “SS (SS indicates solubility ≥ 1mg/ml)”; the “Solubility, Histidine buffer pH 6” value is given as “SS (SS indicates solubility ≥ 1mg/ml)”; the “Solubility, Histidine buffer pH 7” value is reported as “SS (SS indicates solubility ≥ 1mg/ml)”. Besides, in data set [3], the “Solubility, Phosphate buffer pH 6” value is given as “SS (SS indicates solubility ≥ 1mg/ml)”; the “Solubility, Phosphate buffer pH 7” value was “SS (SS indicates solubility ≥ 1mg/ml)”; the “Solubility, Phosphate buffer pH 7.5” value is “SS (SS indicates solubility ≥ 1mg/ml)”.
On to `CC[C@H](C)[C@@H](C(=O)N[C@@H](CC(C)C)C(=O)N[C@@H](CO)C(=O)N[C@@H](CO)C(=O)N[C@H](C(=O)N[C@@H](CCC(=O)O)C(=O)N[C@H](C(=O)NCC(=O)N[C@@H](CO)C(=O)N[C@@H](CCC(=O)O)C(=O)N[C@H](C(=O)N1CCC[C@H]1C(N)=O)[C@@H](C)O)C(C)C)[C@@H](C)O)N(C)C(=O)[C@H](C)NC(=O)CN(C)C(=O)[C@H](Cc1ccccc1)NC(=O)[C@H](CO)NC(=O)[C@H](CO)NC(=O)[C@H](CCCNC(=N)N)NC(=O)[C@H](Cc1c[nH]cn1)NC(=O)[C@H](CC(C)C)NC(=O)[C@H](Cc1ccccc1)NC(=O)[C@H](CCC(=O)O)NC(=O)[C@H](C)NC(=O)[C@H](CC(C)C)NC(=O)[C@H](CCCNC(=N)N)NC(=O)[C@H](CCC(=O)O)NC(=O)[C@@H](NC(=O)[C@H](C)NC(=O)[C@@H]1CSSC[C@H](NC(=O)[C@H](Cc2c[nH]c3ccccc23)NC(=O)CC[C@H](NC(=O)CCCCCCCCCCCCCCCCCCC(=O)O)C(=O)O)C(=O)NCC(=O)N[C@@H]([C@@H](C)O)C(=O)N[C@@H](C)C(=O)N[C@@H]([C@@H](C)O)C(=O)N1)[C@@H](C)O` [Compound 161, [19CD]-isoGlu-WC()GTATC()ATERLAEFLHRSSF-Gly(Me)-A-Ile(Me)-LSSTEVGSETP-NH2] ({C20 diacid-γGlu}-WCGTATCATERLAEFLHRSSF[Sar]A[NMeI]LSSTEVGSETP-NH2; disulfide 2-7), for which, in data set [1], the “Food intake inhibition (%) after 48 hours” value is 99% and the “Body weight loss (%) after 96 hours” value amounted to 10 ± 2.7%. In data set [2], the “Fibrillation lag time … (Ac)” value was “FND”, the “Fibrillation lag time … (His)” value is given as “FND” and the “Fibrillation lag time … (Ph)” value is listed as “FND”. Also, in data set [3], the “Solubility, Acetate buffer pH 4” value was “II (II indicates solubility ≤ 1 mg/ml)”; the “Solubility, Acetate buffer pH 5” value is on record as “SS (SS indicates solubility ≥ 1mg/ml)”; the “Solubility, Histidine buffer pH 6” value was “SS (SS indicates solubility ≥ 1mg/ml)”; the “Solubility, Histidine buffer pH 7” value is on record as “SS (SS indicates solubility ≥ 1mg/ml)”. Further, in data set [3], the “Solubility, Phosphate buffer pH 6” value was “SS (SS indicates solubility ≥ 1mg/ml)”; the “Solubility, Phosphate buffer pH 7” value was “SS (SS indicates solubility ≥ 1mg/ml)”; the “Solubility, Phosphate buffer pH 7.5” value was “SS (SS indicates solubility ≥ 1mg/ml)”.
